According to patent publication US20260250291A1, “INHIBITORS OF FGFR2 AND FGFR3 AND USES THEREOF” (Insilico Medicine IP Limited, priority 2023, published 2026):

Tests used:
FGFR1 = target: T1, FGFR1 (Homo sapiens, UniProt P11362); assay: FGFR biochemical assay (LanthaScreen TR-FRET), FGFR1; settings: ATP 28 μM, FGFR1 0.01 nM
T1 construct: purchased Carna
Experimental: (§1) The following procedure was used to test the compounds described herein: • Dilute the test compounds to 100× of the final desired highest concentration in reaction by 100% DMSO. • Perform a serial dilution in a 384-well source plate by transferring 15 μL to 30 μL of […] DMSO in the next well and so forth for a total of 10 concentrations. • Dispense 100 nL of compound solution each well from the source plate to a 384-well assay plate in duplicates by Echo (Labcyte). • Prepare a solution of 2× FGFR enzyme (Carna) in kinase buffer (50 mM HEPES, pH 7.5, 10 mM MgCl2, 4 mM DTT, 0.01% Tween-20 and 0.01% BSA). The final concentration of FGFR1/2/3/4 is 0.01. 0.01, 0.1 and 1 nM, respectively. • Add 5 μL of kinase solution to each well of the compound-containing assay plate, except for low control wells without enzyme (add 5 μL of 1× kinase buffer instead). • Shake the plate and incubate at room temperature for 10 minutes (for Example 1) (or 60 min for the remaining Examples in Table 4). • Prepare the substrate solution of Fluorescein-Poly GT (Invitrogen) and ATP (Sigma) in 1× kinase reaction buffer at 2-fold of the final concentration of each reagent desired in the assay (final concentration of ATP is 28, 22, 35 and 238 μM for FGFR1/2/3/4 respectively; Fluorescein-Poly GT is fixed at 20 nM). • Add 5 μL of substrate solution to each well of the assay plate to initiate the kinase reaction. • Shake the plate shortly and incubate at room temperature for 30 minutes. • Prepare 2× detection solution in Antibody Dilution Buffer (LanthaScreen® Tb—PY20 Antibody Kit, Invitrogen). • Add 10 μL of detection solution to each well of the assay plate to stop the reaction. • Mix briefly with centrifuge and incubate at room temperature for 60 minutes before reading on a microplate reader. • Collect data on Envision with excitation at 340 nm and emission at 520 nm and 495 nm. • Calculate Ratio of RFU 520 nm/RFU 495 nm. Convert Ratio values to percent inhibition values (Percent inhibition=(max−sample Ratio)/(max−min)*100) where “min” means the Ratio of no enzyme control and “max” means the Ratio of DMSO control. • Data are analyzed and curve fitting is performed by XLFit Excel add-in version 5.4.0.8. The IC50 calculation equation is: Y=Bottom+(Top−Bottom)/(1+(IC50/X)^HillSlope.

FGFR2 = target: T2, FGFR2 (Homo sapiens, UniProt P21802); assay: FGFR biochemical assay (LanthaScreen TR-FRET), FGFR2; settings: ATP 22 μM, FGFR2 0.01 nM
T2 construct: purchased Carna
T2 sequence (P21802 22-821): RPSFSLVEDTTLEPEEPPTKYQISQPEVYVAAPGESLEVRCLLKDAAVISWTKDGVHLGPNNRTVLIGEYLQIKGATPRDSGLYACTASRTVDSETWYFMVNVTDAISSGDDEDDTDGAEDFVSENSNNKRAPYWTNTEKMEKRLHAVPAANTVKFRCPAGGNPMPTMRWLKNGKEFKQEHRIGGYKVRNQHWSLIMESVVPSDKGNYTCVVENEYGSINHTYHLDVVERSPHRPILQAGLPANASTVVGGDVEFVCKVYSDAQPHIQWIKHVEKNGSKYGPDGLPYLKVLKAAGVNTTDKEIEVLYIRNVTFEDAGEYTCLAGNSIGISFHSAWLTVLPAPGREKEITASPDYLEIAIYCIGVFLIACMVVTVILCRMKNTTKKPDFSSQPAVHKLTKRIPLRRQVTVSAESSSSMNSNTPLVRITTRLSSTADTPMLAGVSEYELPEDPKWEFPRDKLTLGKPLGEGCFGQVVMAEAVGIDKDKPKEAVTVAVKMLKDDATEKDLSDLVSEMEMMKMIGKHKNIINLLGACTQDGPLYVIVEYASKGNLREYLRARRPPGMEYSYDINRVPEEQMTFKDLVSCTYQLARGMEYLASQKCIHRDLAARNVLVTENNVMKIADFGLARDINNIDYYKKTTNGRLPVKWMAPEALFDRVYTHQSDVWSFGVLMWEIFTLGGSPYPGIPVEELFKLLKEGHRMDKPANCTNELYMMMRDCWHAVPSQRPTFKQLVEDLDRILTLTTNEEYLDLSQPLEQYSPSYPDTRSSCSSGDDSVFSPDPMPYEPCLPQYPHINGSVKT
Experimental: as §1

FGFR3 = target: T3, FGFR3 (Homo sapiens, UniProt P22607); assay: FGFR biochemical assay (LanthaScreen TR-FRET), FGFR3; settings: ATP 35 μM, FGFR3 0.1 nM
T3 construct: purchased Carna
T3 sequence (P22607 23-806): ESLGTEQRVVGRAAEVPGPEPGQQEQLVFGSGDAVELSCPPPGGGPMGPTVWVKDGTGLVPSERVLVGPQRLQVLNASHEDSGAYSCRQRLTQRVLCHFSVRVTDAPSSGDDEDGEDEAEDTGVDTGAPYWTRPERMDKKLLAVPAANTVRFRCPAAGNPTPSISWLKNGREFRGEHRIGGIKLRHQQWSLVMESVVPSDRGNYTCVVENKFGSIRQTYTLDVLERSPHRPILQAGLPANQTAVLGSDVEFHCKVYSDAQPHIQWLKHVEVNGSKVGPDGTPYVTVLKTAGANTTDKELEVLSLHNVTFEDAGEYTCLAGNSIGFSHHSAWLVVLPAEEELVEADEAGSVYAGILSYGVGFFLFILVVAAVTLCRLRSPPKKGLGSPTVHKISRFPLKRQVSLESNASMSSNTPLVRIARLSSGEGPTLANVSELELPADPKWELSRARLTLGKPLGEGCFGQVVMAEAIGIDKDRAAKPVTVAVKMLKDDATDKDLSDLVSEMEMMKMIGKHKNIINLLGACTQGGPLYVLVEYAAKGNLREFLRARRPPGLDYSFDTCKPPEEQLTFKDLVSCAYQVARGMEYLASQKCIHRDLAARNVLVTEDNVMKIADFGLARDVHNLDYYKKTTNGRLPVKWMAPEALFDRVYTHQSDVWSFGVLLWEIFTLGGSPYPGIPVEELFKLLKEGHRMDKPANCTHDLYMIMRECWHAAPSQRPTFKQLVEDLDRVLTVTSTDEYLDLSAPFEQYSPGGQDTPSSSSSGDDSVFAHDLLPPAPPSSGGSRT
Experimental: as §1

SNU-16 (FGFR2) = assay: Cellular proliferation assay (CellTiter-Glo), SNU-16; type: cell-based; settings: Homo sapiens, SNU-16 cells, 72 hours
Experimental: (§2) Compounds were tested proliferation assay in SNU-16, KATO-III, SNU-1, AGS, AN3CA, MFE280, MKN45, KLE, RT112-84, RT4, T24, UM-UC-3, KMS11, OPM-2, RAPI8226, U266, SUM 52PE, MCF7 and BaF3 cell lines. Test compounds were prepared in 10 mM DMSO stock solutions, add […] 1000× stock solution to 98 μL growth medium to get […] final concentration, 3-fold 9-points dilution was performed. Cell lines suspension of 95 μL were seeded into 96-well plate and incubated at 37° C. for 24 hours, add 5 μL 20× compounds solutions to 96-well plate according to the plate map with Echo550 liquid handler. Final DMSO concentration in each well is 0.1%, cell lines were incubated at 37° C. for 72 hours, then equilibrate the assay plate to room temperature before measurement, add 50 μL of CellTiter-Glo® Reagent into each well, mix contents for 2 minutes on an orbital shaker to induce cell lysis and incubate at room temperature for 10 minutes to stabilize luminescent signal, Chemiluminescence was then read on an EnVision reader. Inhibition Rate (Inh. %) was calculated relative to vehicle (DMSO) treated control wells using following formula: Inhibition Rate (Inh %)=100−(RLU compound−RLU blank)/(RLU control−RLU blank)*100%, Data were analyzed using Graphpad Prism 7.0, fitting to a 4-parameter equation to generate concentration response curves.

RT4 (FGFR3) = assay: Cellular proliferation assay (CellTiter-Glo), RT4; type: cell-based; settings: Homo sapiens, RT-4, RT4 cells, 72 hours
Experimental: as §2

[1] = enzyme pre-incubation 10 minutes (for Example 1)

T1 sequence (P11362 22-822): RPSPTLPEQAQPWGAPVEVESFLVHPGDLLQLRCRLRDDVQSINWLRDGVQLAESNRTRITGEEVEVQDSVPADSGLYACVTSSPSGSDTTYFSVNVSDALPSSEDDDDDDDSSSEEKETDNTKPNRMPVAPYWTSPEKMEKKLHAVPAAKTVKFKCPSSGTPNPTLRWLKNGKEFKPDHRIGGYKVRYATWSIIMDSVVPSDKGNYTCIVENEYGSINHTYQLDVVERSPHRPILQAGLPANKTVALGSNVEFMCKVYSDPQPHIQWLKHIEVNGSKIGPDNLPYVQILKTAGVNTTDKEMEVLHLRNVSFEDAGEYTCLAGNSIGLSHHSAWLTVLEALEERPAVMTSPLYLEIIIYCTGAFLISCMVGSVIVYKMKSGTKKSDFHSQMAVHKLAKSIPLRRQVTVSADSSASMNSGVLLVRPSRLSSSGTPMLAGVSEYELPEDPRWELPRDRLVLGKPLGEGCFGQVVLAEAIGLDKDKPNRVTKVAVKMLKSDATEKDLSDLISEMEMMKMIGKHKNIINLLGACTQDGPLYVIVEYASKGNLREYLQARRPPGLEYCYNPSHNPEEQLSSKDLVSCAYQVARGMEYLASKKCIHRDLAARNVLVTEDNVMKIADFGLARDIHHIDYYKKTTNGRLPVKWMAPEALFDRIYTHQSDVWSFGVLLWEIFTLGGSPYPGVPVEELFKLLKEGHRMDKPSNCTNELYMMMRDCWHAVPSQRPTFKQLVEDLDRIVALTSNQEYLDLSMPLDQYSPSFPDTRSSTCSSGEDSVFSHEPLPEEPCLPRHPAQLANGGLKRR

| Structure (SMILES) | IC50 (FGFR1; [1]) | IC50 (FGFR2; [1]) | IC50 (FGFR3; [1]) | IC50 (FGFR1; enzyme pre-incubation 60 min) | IC50 (FGFR2; enzyme pre-incubation 60 min) | IC50 (FGFR3; enzyme pre-incubation 60 min) | IC50 (SNU-16 (FGFR2)) | IC50 (RT4 (FGFR3)) |
| --- | --- | --- | --- | --- | --- | --- | --- | --- |
| C=CC(=O)Nc1ccc(-c2c(-c3ccc(Oc4cccc(C)n4)cc3)c(C(N)=O)n3cccnc23)cc1 [Example 1] | 100 to 1000 nM | < 10 nM | 10 to 100 nM | – | – | – | – | – |
| C=C(F)C(=O)Nc1ccc(-c2c(-c3ccc(Oc4nccc(C)n4)c(F)c3)c(C(N)=O)n3cc(C)cnc23)cc1 [Example 2] | – | – | – | 100 to 1000 nM | < 10 nM | 10 to 100 nM | < 10 nM | 10 to 100 nM |
| C=C(F)C(=O)Nc1ccc(-c2c(-c3ccc(Oc4nccc(C)n4)c(F)c3)c(C(N)=O)n3cc(C)ncc23)cc1 [Example 3] | – | – | – | 100 to 1000 nM | < 10 nM | 10 to 100 nM | < 10 nM | 10 to 100 nM |
| C=C(F)C(=O)Nc1ccc(-c2c(-c3ccc(Oc4nccc(C)n4)c(F)c3)c(C(N)=O)n3ccc(C)nc23)cc1 [Example 4] | – | – | – | 100 to 1000 nM | 10 to 100 nM | 100 to 1000 nM | 10 to 100 nM | 100 to 1000 nM |
| C=C(F)C(=O)Nc1ccc(-c2c(-c3ccc(Oc4nccc(C)n4)c(F)c3)c(C(N)=O)n3cc(C4CC4)cnc23)cc1 [Example 5] | – | – | – | 100 to 1000 nM | 10 to 100 nM | 10 to 100 nM | 10 to 100 nM | 10 to 100 nM |
| C=C(F)C(=O)Nc1ccc(-c2c(-c3ccc(Oc4nccc(C)n4)cc3)c(C(N)=O)n3cc(N4CCN(C)CC4)cnc23)cc1 [Example 6] | – | – | – | 100 to 1000 nM | < 10 nM | 10 to 100 nM | – | – |
| C=C(F)C(=O)Nc1ccc(-c2c(-c3ccc(Oc4nccc(C)n4)c(F)c3)c(C(N)=O)n3cc(CC)cnc23)cc1 [Example 7] | – | – | – | > 1000 nM | < 10 nM | 100 to 1000 nM | – | 10 to 100 nM |
| C=C(F)C(=O)Nc1ccc(-c2c(-c3ccc(Oc4nccc(C)n4)c(F)c3)c(C(N)=O)n3cc(N4CCOCC4)cnc23)cc1 [Example 8] | – | – | – | > 1000 nM | < 10 nM | 10 to 100 nM | < 10 nM | 10 to 100 nM |
| C=C(F)C(=O)Nc1ccc(-c2c(-c3ccc(Oc4nccc(C)n4)c(F)c3)c(C(N)=O)n3cc(-c4cnn(C)c4)cnc23)cc1 [Example 9] | – | – | – | 100 to 1000 nM | < 10 nM | 100 to 1000 nM | – | – |
| C=C(F)C(=O)Nc1ccc(-c2c(-c3ccc(Oc4nccc(C)n4)c(F)c3)c(C(N)=O)n3cc(C#CC)cnc23)cc1 [Example 10] | – | – | – | 100 to 1000 nM | 10 to 100 nM | 100 to 1000 nM | – | – |
| C=C(F)C(=O)Nc1ccc(-c2c(-c3ccc(Oc4nccc(C)n4)c(F)c3)c(C(N)=O)n3cccnc23)cc1 [Example 11] | – | – | – | 100 to 1000 nM | < 10 nM | 10 to 100 nM | – | – |
| C=C(F)C(=O)Nc1ccc(-c2c(-c3ccc(Oc4nccc(C)n4)c(F)c3)c(C(N)=O)n3ccccc23)cc1 [Example 12] | – | – | – | 100 to 1000 nM | < 10 nM | 10 to 100 nM | – | – |
| CC#CC(=O)Nc1ccc(-c2c(-c3ccc(Oc4nccc(C)n4)c(F)c3)c(C(N)=O)n3cc(C)cnc23)cc1 [Example 13] | – | – | – | 100 to 1000 nM | < 10 nM | 10 to 100 nM | < 10 nM | 10 to 100 nM |
| Cc1cnc2c(-c3ccc(NC(=O)/C=C/CN(C)C)cc3)c(-c3ccc(Oc4nccc(C)n4)c(F)c3)c(C(N)=O)n2c1 [Example 14] | – | – | – | 100 to 1000 nM | < 10 nM | 10 to 100 nM | < 10 nM | 10 to 100 nM |
| C=C(F)C(=O)Nc1ccc(-c2c(-c3ccc(Oc4nccc(C)n4)cc3Cl)c(C(N)=O)n3cc(C)cnc23)cc1 [Example 15] | – | – | – | > 1000 nM | 100 to 1000 nM | 100 to 1000 nM | – | – |
| C=C(F)C(=O)Nc1ccc(-c2c(-c3ccc(Oc4nccc(C)n4)c(F)c3)c(C(N)=O)n3cc(Cl)cnc23)cc1 [Example 16] | – | – | – | 100 to 1000 nM | 10 to 100 nM | 100 to 1000 nM | – | – |
| C=C(F)C(=O)N1CCc2cc(-c3c(-c4ccc(Oc5nccc(C)n5)c(F)c4)c(C(N)=O)n4cc(C)cnc34)ccc21 [Example 17] | – | – | – | 100 to 1000 nM | < 10 nM | < 10 nM | < 10 nM | 10 to 100 nM |
| C=C(F)C(=O)Nc1ccc(-c2c(-c3ccc(Oc4nccc(C)n4)c(F)c3)c(C(N)=O)n3cc(C)cnc23)c(F)c1 [Example 18] | – | – | – | 10 to 100 nM | < 10 nM | < 10 nM | – | – |
| C=C(C)C(=O)Nc1ccc(-c2c(-c3ccc(Oc4nccc(C)n4)c(F)c3)c(C(N)=O)n3cc(C)cnc23)c(F)c1 [Example 19] | – | – | – | > 1000 nM | 10 to 100 nM | 100 to 1000 nM | – | – |
| C=C(F)C(=O)Nc1ccc(-c2c(-c3ccc(Oc4nccc(C)n4)cc3)c(C(N)=O)n3cc(C)cnc23)cc1 [Example 20] | – | – | – | 100 to 1000 nM | < 10 nM | 10 to 100 nM | < 10 nM | 10 to 100 nM |
| Cc1cnc2c(-c3ccc(NC(=O)/C(F)=C/CN(C)C)cc3)c(-c3ccc(Oc4nccc(C)n4)c(F)c3)c(C(N)=O)n2c1 [Example 21] | – | – | – | > 1000 nM | 10 to 100 nM | 10 to 100 nM | – | – |
| Cc1cnc2c(-c3ccc(NC(=O)/C=C/CNC4COC4)cc3)c(-c3ccc(Oc4nccc(C)n4)c(F)c3)c(C(N)=O)n2c1 [Example 22] | – | – | – | 100 to 1000 nM | < 10 nM | 10 to 100 nM | < 10 nM | 10 to 100 nM |
| Cc1cnc2c(-c3ccc(NC(=O)/C=C/CN4CC(O)C4)cc3)c(-c3ccc(Oc4nccc(C)n4)c(F)c3)c(C(N)=O)n2c1 [Example 23] | – | – | – | 10 to 100 nM | < 10 nM | < 10 nM | 10 to 100 nM | 100 to 1000 nM |
